Measured values: DBAASP
In brackets after ≈: the same amount, converted by molar mass. Several values for one entry are separate records, joined by “and”; a condition that tells them apart may be missing. Equal values may be shown once. Each block holds one compound with its values, some of them ahead of it.

Legend:
Assay in all cases: ≥ marks a high value that may be exact or a test limit, other limits are often not marked, values filed in µg/mL are converted to µM
[1] = test system: Staphylococcus aureus IFO 12732
[2] = test system: Pseudomonas aeruginosa IFO 12582
[3] = test system: Escherichia coli IFO 12734
[4] = test system: Bacillus subtilis IFO 3143
Saccharomyces cerevisiae = test system: Saccharomyces cerevisiae
[5] = test system: Staphylococcus aureus ATCC 29213
[6] = test system: Bacillus cereus ATCC 9193
[7] = test system: Clostridium perfringens ATCC 12915
[8] = test system: Salmonella enterica subsp. enterica serovar Typhimurium ATCC 14028
[9] = test system: Pseudomonas aeruginosa ATCC 27853
[10] = test system: Streptococcus pyogenes ATCC 19615
[11] = test system: Campylobacter jejuni ATCC 33291
Candida albicans = test system: Candida albicans
[12] = test system: Vibrio coralliilyticus YB1 CIP 107925
Fusarium oxysporum = test system: Fusarium oxysporum
[13] = test system: Vibrio aestuarianus CIP 109791
[14] = test system: Staphylococcus aureus SG511
[15] = test system: Corynebacterium stationis CIP 101282
Bacillus megaterium IBMC = test system: Bacillus megaterium IBMC
Micrococcus luteus A270 = test system: Micrococcus luteus A270
[16] = test system: Microbacterium maritypicum CIP 105733T
Escherichia coli SBS 363 = test system: Escherichia coli SBS 363
[17] = test system: Vibrio splendidus CIP 107715
[18] = test system: Bacillus subtilis KCTC 1918
[19] = test system: Bacillus megaterium KCTC 1096
[20] = test system: Fusarium oxysporum KCTC 6084
Proteus vulgaris = test system: Proteus vulgaris
[21] = test system: Pseudomonas aeruginosa KCTC 1637
[22] = test system: Aspergillus flavus KCTC 7375
[23] = test system: Escherichia coli KCTC 1682
[24] = test system: Staphylococcus aureus KCTC 1621
[25] = test system: Trichosporon beigelii KCTC 7251
[26] = test system: Candida albicans KCTC 7121

MIC [1]: 0.723 µM (≈ 2 µg/mL)
MIC [2]: 1.45 µM (≈ 4 µg/mL)
MIC [3]: 0.723 µM (≈ 2 µg/mL)
MIC [4]: 0.723 µM (≈ 2 µg/mL)
Compound: CC(C)C[C@H](NC(=O)[C@H](Cc1ccc(O)cc1)NC(=O)[C@H](Cc1cnc[nH]1)NC(=O)[C@@H](NC(=O)[C@H](CC(C)C)NC(=O)[C@H](C)NC(=O)[C@H](C)NC(=O)[C@H](CCCCN)NC(=O)[C@H](C)NC(=O)[C@@H](NC(=O)[C@H](Cc1cnc[nH]1)NC(=O)[C@H](CCCCN)NC(=O)[C@H](C)NC(=O)[C@@H](NC(=O)[C@H](Cc1cnc[nH]1)NC(=O)[C@H](C)NC(=O)[C@H](C)NC(=O)[C@H](CCCCN)NC(=O)[C@H](CCCCN)NC(=O)[C@H](Cc1ccccc1)NC(=O)[C@H](Cc1ccccc1)NC(=O)[C@H](CO)NC(=O)[C@H](C)NC(=O)[C@H](Cc1c[nH]c2ccccc12)NC(=O)[C@H](C)N)C(C)C)C(C)C)[C@@H](C)O)C(=O)O [AWASFFKKAAHVAKHVAKAALTHYL]

MIC (Saccharomyces cerevisiae): 1.87 µM (≈ 7.99 µg/mL)
MIC [5]: > 29.9 µM and 59.7 µM
MIC [6]: 29.9 µM (≈ 128 µg/mL)
MIC [7]: 1.87 µM (≈ 7.99 µg/mL)
MIC [8]: > 29.9 µM and 59.7 µM
MIC [9]: > 29.9 µM
MIC [10]: 14.9 µM (≈ 63.9 µg/mL)
MIC [11]: 14.9 µM (≈ 63.9 µg/mL)
MIC (Candida albicans): 1.87 µM (≈ 7.99 µg/mL)
Compound: CC[C@H](C)[C@@H]1NC(=O)[C@H](CC(=O)O)NC(=O)[C@H](C(C)C)NC(=O)[C@H](CO)NC(=O)[C@@H]2CCCN2C(=O)[C@H](C)NC(=O)[C@H](CCCN=C(N)N)NC(=O)[C@@H]2CSSC[C@@H](C(=O)N[C@@H](CCCCN)C(=O)N[C@@H](Cc3c[nH]c4ccccc34)C(=O)N[C@@H](C)C(=O)N3CCC[C@H]3C(=O)N[C@@H](CO)C(=O)N[C@@H](CO)C(=O)O)NC(=O)[C@@H]3CSSC[C@H](NC(=O)[C@H](C)NC(=O)[C@H](CC(C)C)NC(=O)[C@@H](NC(=O)[C@@H](N)CC(=O)O)[C@@H](C)O)C(=O)N[C@@H](CCCN=C(N)N)C(=O)N[C@@H](CCC(N)=O)C(=O)N[C@@H](CO)C(=O)N[C@@H](Cc4cnc[nH]4)C(=O)NCC(=O)N[C@@H](CO)C(=O)N[C@@H](CSSC[C@H](NC(=O)[C@H]([C@@H](C)O)NC(=O)CNC1=O)C(=O)N[C@@H](CCCN=C(N)N)C(=O)NCC(=O)NCC(=O)N[C@@H](CCCCN)C(=O)N[C@@H](CC(C)C)C(=O)N[C@@H](CCCCN)C(=O)N3)C(=O)N[C@@H](CO)C(=O)N[C@@H](Cc1ccccc1)C(=O)N[C@@H](C(C)C)C(=O)N[C@@H](C)C(=O)N2 [DTLACRQSHGSCSFVACRAPSVDIGTCRGGKLKCCKWAPSS]

MIC [12]: 20 µM (≈ 89.8 µg/mL)
MIC (Fusarium oxysporum): 1.25 µM (≈ 5.61 µg/mL)
MIC [13]: 20 µM (≈ 89.8 µg/mL)
MIC [14]: 5 µM (≈ 22.5 µg/mL)
MIC [15]: 10 µM (≈ 44.9 µg/mL)
MIC (Bacillus megaterium IBMC): 20 µM (≈ 89.8 µg/mL)
MIC (Micrococcus luteus A270): 1.25 µM (≈ 5.61 µg/mL)
MIC [16]: 20 µM (≈ 89.8 µg/mL)
MIC (Escherichia coli SBS 363): 10 µM (≈ 44.9 µg/mL)
MIC [17]: 20 µM (≈ 89.8 µg/mL)
Compound: CC[C@H](C)[C@@H]1NC(=O)CNC(=O)[C@H](CCCCN)NC(=O)[C@H](CCCCN)NC(=O)[C@H](CC(=O)O)NC(=O)[C@@H]2CSSC[C@@H]3NC(=O)[C@H](CO)NC(=O)[C@H](Cc4ccc(O)cc4)NC(=O)[C@H](CO)NC(=O)[C@H](CSSC[C@H](NC(=O)[C@H](Cc4ccccc4)NC(=O)[C@H]([C@@H](C)O)NC(=O)[C@H](CCCCN)NC(=O)CNC(=O)[C@H](CCCN=C(N)N)NC(=O)[C@H](CC(C)C)NC(=O)[C@H](CC(=O)O)NC(=O)[C@H](C)NC(=O)[C@@H](NC(=O)[C@H](C)N)CSSC[C@@H](C(=O)N[C@@H](CCCN=C(N)N)C(N)=O)NC(=O)CNC3=O)C(=O)N[C@@H](CCCN=C(N)N)C(=O)N[C@@H](CC(C)C)C(=O)N[C@@H](Cc3ccccc3)C(=O)N[C@@H](CCCCN)C(=O)N[C@@H](CO)C(=O)N[C@@H](Cc3ccc(O)cc3)C(=O)N2)NC(=O)[C@H](CCCCN)NC(=O)[C@H](CC(=O)O)NC(=O)[C@H](CCCN=C(N)N)NC(=O)[C@H](CCSC)NC(=O)[C@H](CC(C)C)NC(=O)[C@H](CCCN=C(N)N)NC(=O)CNC(=O)[C@H](CCCN=C(N)N)NC1=O [ACADLRGKTFCRLFKSYCDKKGIRGRLMRDKCSYSCGCR]

MIC [18]: 1.56 µM (≈ 2.85 µg/mL)
MIC [19]: 3.12 µM (≈ 5.7 µg/mL)
MIC [20]: ≥ 100 µM
MIC (Proteus vulgaris): 3.12 µM (≈ 5.7 µg/mL)
MIC [21]: 6.25 µM (≈ 11.4 µg/mL)
MIC [22]: ≥ 100 µM
MIC [23]: 6.25 µM (≈ 11.4 µg/mL)
MIC [24]: 6.25 µM (≈ 11.4 µg/mL)
MIC [25]: ≥ 100 µM
MIC [26]: ≥ 100 µM
Compound: CC[C@H](C)[C@H](NC(=O)[C@H](CCCCN)NC(=O)[C@H](CCCCN)NC(=O)[C@H](Cc1ccccc1)NC(=O)[C@H](CC(C)C)NC(=O)[C@H](CCCCN)NC(=O)[C@H](Cc1c[nH]c2ccccc12)NC(=O)[C@@H](N)CCCCN)C(=O)N1CCC[C@H]1C(=O)N[C@@H](CCCCN)C(=O)N[C@@H](Cc1ccccc1)C(=O)N[C@@H](CC(C)C)C(=O)N[C@@H](Cc1cnc[nH]1)C(=O)N[C@@H](CC(C)C)C(N)=O [KWKLFKKIPKFLHL]
